Experimental data reported in patent US6376497B1, “Antifungal azole derivatives having a fluorinated vinyl group and process for preparing same” (Korea Research Institute of Chemical Technology, priority 1999, dated 2002).

Experiments:
Test in all cases: In vitro antifungal activity, microbroth dilution MIC
Type in all cases: cell-based
[1] = tested on: Aspergillus furnigatus B. 19119; conditions: RPMI-1640, 35° C., no growth observed
Summary of the method: (§1)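 Broth microdilution adapted from NCCLS M27, in RPMI-1640 with 0.165 M MOPS, pH 7.0. Yeast or mould inoculum at 2×10^3 CFU/ml was mixed 1:1 with DMSO-derived compound solutions (200 to 0.10 μg/ml before mixing) and incubated at 35 °C for 4 to 48 h. MIC was the concentration showing no growth.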

[2] = tested on: Cryptococcus neoformans B. 42419; conditions: RPMI-1640, 35° C., 4 to 48 hours, no growth observed
Summary of the method: as §1

[3] = tested on: Trichophyton mentagrophytes A. 9129; conditions: RPMI-1640, 35° C., no growth observed
Summary of the method: as §1

[4] = tested on: Trichophyton mentagrophytes B. 32663; conditions: RPMI-1640, 35° C., no growth observed
Summary of the method: as §1

[5] = tested on: Aspergillus niger A. 16404; conditions: RPMI-1640, 35° C., no growth observed
Summary of the method: as §1

[6] = tested on: Candida albicans A. 10231; conditions: RPMI-1640, 35° C., 4 to 48 hours, no growth observed
Summary of the method: as §1

[7] = tested on: Cryptococcus neoformans A. 34144; conditions: RPMI-1640, 35° C., no growth observed
Summary of the method: as §1

[8] = tested on: Candida albicans IFO. 1385; conditions: RPMI-1640, 35° C., 4 to 48 hours, no growth observed
Summary of the method: as §1

[9] = tested on: Torulopsis glabrata B. 16205; conditions: RPMI-1640, 35° C., 4 to 48 hours, no growth observed
Summary of the method: as §1

Candida albicans C1-2 = conditions: RPMI-1640, 35° C., 4 to 48 hours, no growth observed
Summary of the method: as §1

[10] = tested on: Candida tropicalis A. 13803; conditions: RPMI-1640, 35° C., 4 to 48 hours, no growth observed
Summary of the method: as §1

[11] = tested on: Candida parapsitosis A. 7330; conditions: RPMI-1640, 35° C., 4 to 48 hours, no growth observed
Summary of the method: as §1

[12] = tested on: Cryptococcus neoformans IFM. 40092; conditions: RPMI-1640, 35° C., no growth observed
Summary of the method: as §1

[13] = tested on: Candida pseudotropicalis K. 11658; conditions: RPMI-1640, 35° C., 4 to 48 hours, no growth observed
Summary of the method: as §1

Candida krusei K. 11655 = conditions: RPMI-1640, 35° C., 4 to 48 hours, no growth observed
Summary of the method: as §1

Minimal inhibitory concentration(MIC), A furnigatus B. 19119 [1]	Minimal inhibitory concentration(MIC), Cry. neoformans B. 42419 [2]	Minimal inhibitory concentration(MIC), T. mentagrophytes A. 9129 [3]	Minimal inhibitory concentration(MIC), T. mentagrophytes B. 32663 [4]	Minimal inhibitory concentration(MIC), A. niger A. 16404 [5]	Minimal inhibitory concentration(MIC), C. albicans A. 10231 [6]	Minimal inhibitory concentration(MIC), Cry. neoformans A. 34144 [7]	Minimal inhibitory concentration(MIC), C. albicans IFO. 1385 [8]	Minimal inhibitory concentration(MIC), T. glabrata B. 16205 [9]	Minimal inhibitory concentration(MIC), C. albicans C1-2 (Candida albicans C1-2)	Minimal inhibitory concentration(MIC), C. tropicalis A. 13803 [10]	Minimal inhibitory concentration(MIC), C. parapsitosis A. 7330 [11]	Minimal inhibitory concentration(MIC), Cry. neoformans IFM. 40092 [12]	Minimal inhibitory concentration(MIC), C. pseudotropicalis K. 11658 [13]	Minimal inhibitory concentration(MIC), C. krusei K. 11655 (Candida krusei K. 11655)	SMILES
50.0 µg/mL	3.13 µg/mL	12.5 µg/mL	1.56 µg/mL	100 µg/mL	>100 µg/mL	3.13 µg/mL	3.13 µg/mL	100 µg/mL	>100 µg/mL	>100 µg/mL	3.13 µg/mL	0.39 µg/mL	6.25 µg/mL	6.25 µg/mL	FC(=C(c1ccc(C(F)(F)F)cc1)C(F)(F)F)N1CCN(c2ccc(OCC3COC(Cn4ccnc4)(c4ccc(F)cc4F)O3)cc2)CC1 (mixture of isomers) [Ex. 142]
100 µg/mL	0.39 µg/mL	6.25 µg/mL	0.78 µg/mL	>100 µg/mL	>100 µg/mL	3.13 µg/mL	0.39 µg/mL	100 µg/mL	>100 µg/mL	>100 µg/mL	3.13 µg/mL	0.78 µg/mL	6.25 µg/mL	1.56 µg/mL	COc1cccc(C(=C(F)N2CCN(c3ccc(OCC4COC(Cn5ccnc5)(c5ccc(F)cc5F)O4)cc3)CC2)C(F)(F)F)c1 (mixture of isomers) [Ex. 143]
100 µg/mL	0.39 µg/mL	12.5 µg/mL	1.56 µg/mL	>100 µg/mL	>100 µg/mL	3.13 µg/mL	0.39 µg/mL	>100 µg/mL	>100 µg/mL	>100 µg/mL	3.13 µg/mL	0.39 µg/mL	1.56 µg/mL	6.25 µg/mL	COc1ccc(C(=C(F)N2CCN(c3ccc(OCC4COC(Cn5ccnc5)(c5ccc(F)cc5F)O4)cc3)CC2)C(F)(F)F)cc1 (mixture of isomers) [Ex. 144]
100 µg/mL	0.78 µg/mL	6.25 µg/mL	1.56 µg/mL	100 µg/mL	>100 µg/mL	3.13 µg/mL	0.78 µg/mL	100 µg/mL	>100 µg/mL	>100 µg/mL	3.13 µg/mL	0.78 µg/mL	3.13 µg/mL	1.56 µg/mL	FC(=C(c1ccc2c(c1)OCO2)C(F)(F)F)N1CCN(c2ccc(OCC3COC(Cn4ccnc4)(c4ccc(F)cc4F)O3)cc2)CC1 (mixture of isomers) [Ex. 145]
100 µg/mL	0.78 µg/mL	12.5 µg/mL	1.56 µg/mL	100 µg/mL	>100 µg/mL	1.56 µg/mL	0.78 µg/mL	100 µg/mL	>100 µg/mL	>100 µg/mL	1.56 µg/mL	0.78 µg/mL	0.39 µg/mL	0.78 µg/mL	FC(=C(c1ccc(Oc2ccccc2)cc1)C(F)(F)F)N1CCN(c2ccc(OCC3COC(Cn4ccnc4)(c4ccc(F)cc4F)O3)cc2)CC1 (mixture of isomers) [Ex. 146]
12.5 µg/mL	0.78 µg/mL	3.13 µg/mL	≦0.10 μg/ml	100 µg/mL	>100 µg/mL	0.78 µg/mL	0.78 µg/mL	50.0 µg/mL	>100 µg/mL	>100 µg/mL	0.78 µg/mL	≦0.10 μg/ml	0.39 µg/mL	0.39 µg/mL	FC(=C(c1cccc(F)c1)C(F)(F)F)N1CCN(c2ccc(OCC3COC(Cn4ccnc4)(c4ccc(F)cc4F)O3)cc2)CC1 (mixture of isomers) [Ex. 147]
6.25 µg/mL	0.78 µg/mL	3.13 µg/mL	≦0.10 μg/ml	100 µg/mL	>100 µg/mL	0.78 µg/mL	0.39 µg/mL	50.0 µg/mL	>100 µg/mL	>100 µg/mL	0.78 µg/mL	≦0.10 μg/ml	0.78 µg/mL	0.39 µg/mL	FC(=C(c1ccc(F)cc1)C(F)(F)F)N1CCN(c2ccc(OCC3COC(Cn4ccnc4)(c4ccc(F)cc4F)O3)cc2)CC1 (mixture of isomers) [Ex. 148]
6.25 µg/mL	0.39 µg/mL	3.13 µg/mL	≦0.10 μg/ml	100 µg/mL	>100 µg/mL	0.78 µg/mL	0.39 µg/mL	50.0 µg/mL	>100 µg/mL	>100 µg/mL	0.78 µg/mL	≦0.10 μg/ml	0.39 µg/mL	0.39 µg/mL	FC(=C(c1ccc(Cl)cc1)C(F)(F)F)N1CCN(c2ccc(OCC3COC(Cn4ccnc4)(c4ccc(F)cc4F)O3)cc2)CC1 (mixture of isomers) [Ex. 149]
